The values below come from patent US20140100183A1, “CENTRAL ADMINISTRATION OF STABLE FORMULATIONS OF THERAPEUTIC AGENTS FOR CNS CONDITIONS” (The Regents of the University of Colorado, a body corporate, priority 2006, published 2014).

The test system of data set [1] is pentylenetetrazole (PTZ) seizure induction in rats. Kind of data set: Pentylenetetrazole (PTZ) seizure induction model, ICV administration. Type of data set: in vivo, rat. Particulars: for % Change: drug group vs vehicle group (-V); for Rodent ICV dose: effective daily dose, blocking seizures; for Efficacy: effective in blocking seizures; for % of Oral dose: rodent ICV dose vs human oral equivalent.
Protocol: Rats are anesthetized, placed in a stereotaxic instrument and a burr hole opened over one anterior lateral ventricle. A cannula is lowered to the ventricle and 5 μl of solution containing the drug is injected into the ventricle over 10 minutes. The incision is then closed and the animal allowed to regain consciousness and remain conscious for 10 minutes. After 10 minutes has elapsed, pentylenetetrazole (PTZ, 10 mg/ml in saline) is injected through a tail-vein catheter at a constant rate of infusion (1 ml/min, Razel syringe pump) until a motor seizure is induced. PTZ seizures are identified as myoclonic jerking followed by clonus and tonus. The time from the initial application of PTZ to the first clonic seizure (i.e., forelimb clonus) is measured and defined as “latency to seiqure onset”. The total amount of PTZ infused is calculated and then divided by each rat;s body weight to obtain the dose (mg/kg) of PTZ. The dose required to attain status epilepticus is compared to the PTZ dose without antiseizure medication.

In data set [2] the test system is patients diagnosed with epilepsy disorders. Kind of data set: ICV or cisterna magna treatment of epilepsy (Example 6). The format is in vivo, human. Particulars: central administration, 0.01 to 0.1 mg per hour, 1 week. An excerpt:
After 1 week of treatment, epileptic frequency is reduced.

Another data set deals with human. The settings on record: effective daily dose, oral; cited from earlier work.
For data set [3] the following is noted: cited from earlier work; for Comments: solubility: qualitative, solvents as given in the source.
Data set [4] has as its system patients diagnosed with psychotic disorders. Kind of data set: ICV or cisterna magna treatment of psychotic disorders (Example 5). The settings on record: central administration, 0.01 to 0.1 mg per hour, 1 week.
Protocol: A 5 mg/ml solution of the active agent is solubilized in aqueous solution using beta-hydroxypropyl cyclodextrin, made isotonic with NaCl, and the pH is maintained at 7.4 with 10 mM sodium phosphate. […] The stabilized solution is inserted into a fluid reservoir attached to a Medtronic Synchromed-II intrathecal delivery system. The stabilized formulation is intracerebroventricularly or cistema magna injected into patients diagnosed with psychotic disorders.
Injection is continuous, using a computerized pump to provide a delivery rate of 0.01 to 0.1 mg of the active agent per hour, depending on the severity of symptoms.
In data set [5] the test system is anxiety in rats (elevated plus maze, open field). Kind of data set: Elevated plus maze and open field conflicts test after ICV antidepressants. Particulars: for Rodent ICV dose: anxiety reduction; for % of Oral dose: rodent ICV dose vs human oral equivalent. The format is in vivo, rat.
Protocol: Various antidepressants were injected via ICV, and animals monitored in standard elevated plus maze and open field conflicts test.
Rats are placed in the center of a pluz-shaped maze. The arms are 13 cm wide; two arms were open and two are enclosed by 32 cm high walls. The maze is elevated off the flor by 51 cm. The percent of time and distance traveled in each type of arm over the 4 minute test period is calculated by computer. Increased time and distance traveled in the open arms is thought to reflect anxiolytic activity.
Rats are place against 1 side of a 104 cm square box with 32 cm sides. The activity of the rat is monitored by computer over a 4 minute testing period. A computer divides the openfied space into 25 equal squares arranged into an outer:ring” of 16 squares, a middle region of 8 squares and a central square. The percent of time and distarnce traveled in the center square by rats receiving the drug are calculated and compared to rats receiving a saline control. Increased time and distance traveled in the center square is thought to reflect anxiolytic activity.
The test system of data set [6] is primary mouse cortical neuron cultures. Kind of data set: Toxicity in primary mouse cortical neuron cultures (MTT). Particulars: 24 hours, 0.002% to 0.1% in culture media.
Protocol: In addition, a preliminary assessment of the toxicity of cyclodextrin in primary mouse cortical neuron cultures was performed. […] After dissection, and cellular dissociation, the cells were washed with Dulbecco's Modified Eagle's Medium with 10% fetal bovine serum. Following recentrifugation, the cells resuspended in plating medium, counted with trypan blue and plated at a constant density of 6.5×10^4 cells per well in a 96-well pre-coated plate. […] The cultures were maintained at 37° C. in a humidified atmosphere of 5% CO2. […] The cultures were incubated and cell toxicity assayed at 24, 48 and 72 hours. Viability was assessed by the MTT (3-(4,5 diethylthiazol-2-yl)-2,5)diphenyltetrazolium bromide) assay, CellTiter 96 Non-radioactive cell Proliferation Assay (Promega, Madison Wis.) and by visual examination.
The subject of data set [7] is sensory inhibition deficits in DBA/2 mice. Kind of data set: Sensory inhibition (paired auditory stimuli, TC ratio) after acute ICV administration. Particulars: 5 μg dose ICV. The format is in vivo, mouse.
Protocol: The following methods were used to record the sensory inhibition.
The deficit in sensory inhibition can be quantified using the paired stimulus paradigm in which 2 identical stimuli are delivered 0.5 seconds apart and the electrophysiological response to each is recorded. In normal individuals, the response to the second, or test, stimulus, occurring 50 msec after stimulus onset, is reduced compared to the response to the first, or conditioning stimulus. However, schizophrenia patients have similar magnitude responses to both stimuli: The “TC ratio” is calculated by dividing the test amplitude by the conditioning amplitude. […] In normal individuals, the TC ratio is generally less than 0.4 while schizophrenia patients commonly have TC ratios above 0.5 and often approaching or exceeding 1.0.
In the present study, briefly, 5 baseline records were obtained in response to the paired auditory stimuli, prior to drug administration. […] Recordings were obtained at 5 minute intervals for 90 minutes post injection. Data analyzed included the amplitude of the response to the first stimulus (conditioning amplitude), amplitude of the response to the second stimulus (test amplitude) and the TC ratio (test amplitude/conditioning amplitude). This final parameter gives a measure of the level of inhibition in the circuit initiated by the conditioning stimulus. […] DBA/2 mice routinely have TC ratios of ≧0.8.

Counter-ions that a name gives are not always drawn. Like-named read-outs stand apart in the source and are kept apart here. Marks after values point to notes of the source that are not given here.

Consider `NC(=O)N1c2ccccc2C=Cc2ccccc21` [Tegretol, 5H-dibenz[b,f]azepine-5-carboxamide], for which, in data set [1], the “% Change” value is listed as 60%, the “Rodent ICV dose” value is recorded as 0.00888 mg/kg, the Efficacy result is given as “effective in blocking” and the “% of Oral dose” value amounted to 0.13%. The alleviation of seizures entry in data set [2] is “efficacious therapeutic alleviation of seizures”. Also, the Human oral equivalent in the data set on human was 6.66 mg/kg. Besides, in data set [3], the “Comments: solubility” value is “Slightly soluble in water and in alcohol”. In the case of `O=C1CN=C(c2ccccc2)c2cc([N+](=O)[O-])ccc2N1` [NITRAZEPAM, 1,3-Dihydro-7-nitro-5-phenyl-2H-1,4-benzodiazepin-2-one], the “Comments: solubility” value in data set [3] was “Soluble 1 in 12 of water, 1 in 14 of alcohol, and 1 in 3.5 of chloroform; insoluble in ether; freely soluble in methyl alcohol”. With `CN(C)CCCN1c2ccccc2CCc2ccccc21` [IMIPRAMINE, 10,11-dihydro-N,N-dimethyl-5H-Dibenz[b,f]azepine-5-propanamine], the “Comments: solubility” value in data set [3] was “insoluble in the common organic solvents, but very soluble in water”. Take `O=C1Nc2ccc(Cl)cc2C(c2ccccc2Cl)=NC1O` (stereo not shown) [LOREZAPAM, 7-chloro-5-(0-chlorophenyl)-1,3-dihydro-3-hydroxy-2H-1,4-benzo-diazepin-2-one]: in data set [3], the “Comments: solubility” value is “Very soluble in organic solvents”.

For `CCc1nn(CCCN2CCN(c3cccc(Cl)c3)CC2)c(=O)n1CCOc1ccccc1` [NEFAZODONE, 2-(3-(4-(3-chlorophenyl)-1-piperazinyl)propyl)-5-ethyl-2,4-dihydro-4-(2-phenoxyethyl)-3H-1,2,4-triazol-3-one], the Solubility in water result in data set [3] (at 25 C.) is reported as “Soluble in water <0.1 g/100 mL at 25 C”.

For the compound `CC1=CC(=O)N2CC(=O)N(C)c3ccc(Cl)cc3C2(c2ccccc2)O1` (stereo not shown) [KETAZOLAM, 11-Chloro-8,12b-dihydro-2,8-dimethyl-12b-phenyl-4H-[1,3]oxazino[3,2-d][1,4]benzodiazepine-4,7(6H)-dione], in data set [3], the “Comments: solubility” value was “Practically insoluble in water; slightly soluble in alcohol; freely soluble in chloroform”. In the case of `OCCOCCN1CCN(C2=Nc3ccccc3Sc3ccccc32)CC1` [Quetiapine], the “alleviation of psychotic symptoms” value in data set [4] is listed as “efficacious therapeutic alleviation of psychotic symptoms”. Consider “(−)-trans-4R-(4′- fluorophenyl)-3S-((3′,4′- methylenedioxyphenoxy) methyl)piperidine [PAROXETINE]”, for which the “Comments: solubility” value in data set [3] was “soluble in alcohol and poorly soluble in water”.

With `NNCCc1ccccc1` [Phenelzine, 2-Phenylethylhydrazine], the “Rodent ICV dose” value in data set [5] (effective daily dose) is 1.8 mg/kg. For the same compound, in data set [5] (elevated plus maze and open field conflicts test), the “efficacy following ICV administration” value was “efficacy”. The Efficacy entry in data set [5] (rat, in vivo) is listed as “anxiety reduction”. Further, the “% of Oral dose” value in data set [5] is given as 120%. For the same compound, in the data set on human, the Human oral equivalent is listed as 1.5 mg/kg. As for `Cc1nnc2n1-c1ccc(Cl)cc1C(c1ccccc1Cl)=NC2` [TRIAZOLAM, 8-chloro-6-(o-chlorophenyl)-1-methyl-4H-s-triazolo-(4,3-alpha)(1,4) benzodiazepine], the “Comments: solubility” value in data set [3] was “practically insoluble in water and soluble in alcohol and in acetone”. For `O=C(O)c1ccccc1O` [SALICYLIC ACID, 2-Hydroxybenzoic acid], the “Comments: solubility” value in data set [3] was “almost insoluble in water”. For `CCCC(CCC)C(=O)O` [Valproate, 2-Propylpentanoic acid], the Human oral equivalent in the data set on human is 1 mg/kg. As to cyclodextrin, the “toxicity of cyclodextrin alone” value in data set [6] is “no toxicity”.

`[Li]` [LITHIUM]: in data set [3] (at 22 C.), the Solubility in water entry is given as “water 0.1-0.5 g/100 mL”. Turning to `O=C(CCCN1CCC(O)(c2ccc(Cl)cc2)CC1)c1ccc(F)cc1` [HALOPERIDOL, 4-[4-(p-chlorophenyl)-4-hydroxypiperidino]-4′-fluorobutyrophenone], in data set [3], the “Comments: solubility” value was “sparingly soluble in water and soluble in ethanol”.

In the case of `O=C1NC(=O)C(c2ccccc2)(c2ccccc2)N1` [PHENYTOIN, 5,5-diphenyl-2,4-imidazolidinedione], the alleviation of seizures result in data set [2] is recorded as “efficacious therapeutic alleviation of seizures”. The “Comments: solubility” value in data set [3] is listed as “Very soluble in water”. On to `NC(=O)N1c2ccccc2CC(=O)c2ccccc21` [OXCARBAZEPINE, 10,11-Dihydro-10-oxo-5H-dibenz[b,f]azepine-5-carboxamide], for which, in data set [3], the “Comments: solubility” value was “Freely soluble in water, in alcohol, and in dichloromethane”. In the case of `Clc1ccc2c(c1)C(N1CCNCC1)=Nc1ccccc1O2` [AMOXAPINE, 2-Chloro-11-(1-piperazinyl)dibenz(b,f)(1,4) oxazepine], the “Comments: solubility” value in data set [3] is “Soluble 1 in 460 of water, 1 in 15 of boiling water, 1 in 3 of alcohol, 1 in 45 of chloroform, 1 in 3 of ether, and 1 in 135 of benzene”. Consider `CN(C)CCCN1c2ccccc2CCc2ccc(Cl)cc21` [Clomipramine, 3-(3-Chloro-10,11-dihydro-5H-dibenz[b,f]azepin-5-yl)propyldimethylamine hydrochloride], for which the “Rodent ICV dose” value in data set [5] (effective daily dose) is 0.37 mg/kg. Moreover, the “% of Oral dose” value in data set [5] is 8.8%. In the data set on human, the Human oral equivalent is reported as 4.16 mg/kg. As for `CC(C)NCC(O)COc1cccc2ccccc12.Cl` (stereo not shown) [PROPRANOLOL, 1-(Isopropylamino)-3-(1-naphthyloxy)-2-propanol hydrochloride], the “Comments: solubility” value in data set [3] was “soluble in methanol or ethanol but which has no appreciable solubility in water at physiological pH”. Consider `CCN(CC)C(=S)SSC(=S)N(CC)CC` [ANTABUSE, bis (diethylthiocarbamoyl) disulfide], for which, in data set [3] (at 22 C.), the Solubility in water result is recorded as “Soluble in water <0.1 g/100 mL at 22 C”. For `CCC(=O)C(CC(C)N(C)C)(c1ccccc1)c1ccccc1` (stereo not shown) [METHADONE, 1,1-Diphenyl-1-(2-dimethylaminopropyl)-2-butanone], the “Comments: solubility” value in data set [3] is “Soluble in water; freely soluble in alcohol and in chloroform; practically insoluble in ether and in glycerol”. As for `CN1CCN(CC/C=C2/c3ccccc3Sc3ccc(S(=O)(=O)N(C)C)cc32)CC1` [THIOTHIXINE, cis isomer of N,N-dimethyl-9-[…]3-(4-methyl-1-piperazinyl)-propylidene[…] thioxanthene-2-sulfonamide.], the “Comments: solubility” value in data set [3] is “Slightly soluble in water; soluble in alcohol and in methyl alcohol”. For the compound `Cc1nnc2n1-c1ccc(Cl)cc1C(c1ccccc1)=NC2` [ALPRAZOLAM, 8-Chloro-1-methyl-6-phenyl-4H-s-triazolo(4,3-a) (1,4) benzodiazepine], the “Comments: solubility” value in data set [3] is reported as “very slightly soluble in water”. With `OCCOCCN1CCN(C(c2ccccc2)c2ccc(Cl)cc2)CC1` (stereo not shown) [HYDROXYZINE, 2-[2-[4-(p-chlorobenzhydryl)-1-piperazinyl]ethoxy]ethanol dihydrochloride.], in data set [3], the “Comments: solubility” value is “slightly soluble in water and isopropyl alcohol, sparingly soluble in ethanol”. `CC(NC(C)(C)C)C(=O)c1cccc(Cl)c1.Cl` (stereo not shown) [BUPROPION, 1-(3-chlorophenyl)-2-[(1,1-dimethylethyl)amino]-1-propanone hydrochloride]: the “Comments: solubility” value in data set [3] was “freely soluble in water and soluble in alcohol and in chloroform”.

As for `Cc1nccn1CC1CCc2c(c3ccccc3n2C)C1=O` (stereo not shown) [ondansetron], the TC ratio result in data set [7] was “significantly reduced TC ratios”.

For `Cl.O=c1n(CCCN2CCN(c3cccc(Cl)c3)CC2)nc2ccccn12` [TRAZODONE], in data set [3] (at 20 C.), the Solubility in water entry is reported as “insoluble in water <0.1 g/100 mL at 20 C”. Regarding `Nc1nnc(-c2cccc(Cl)c2Cl)c(N)n1` [Lamictal], the Human oral equivalent with human is 3.33 mg/kg. For `CNCCC(Oc1ccc(C(F)(F)F)cc1)c1ccccc1` (racemic) [Fluoxetine, (+/−)-N-Methyl-3-phenyl-3-(alpha,alpha,alpha-trifluoro-p-tolyloxy)propylamine hydrochloride], in data set [5] (estimated effective dose), the “Rodent ICV dose” value is on record as 0.74** mg/kg. In addition, the “% of Oral dose” value in data set [5] is 224%. In addition, in the data set on human, the Human oral equivalent is given as 0.33 mg/kg. Take `COc1cc2nc(N3CCN(C(=O)c4ccco4)CC3)nc(N)c2cc1OC.Cl` [PRAZOSIN, 2-[4-(2-Furoyl)piperazin-1-yl]-6,7 dimethoxyquinazolin-4-ylamine hydrochloride]: in data set [3], the Solubility in water entry is “very slightly soluble in water (<1 mg/ml) and readily soluble in organic solvents such as ethanol and acetone”; the “Comments: solubility” value was “very slightly soluble in water (<1 mg/ml) and readily soluble in organic solvents such as ethanol and acetone”. For `C=CCN1CC[C@]23c4c5ccc(O)c4O[C@H]2C(=O)CC[C@@]3(O)[C@H]1C5` [NALOXONE, (−)-17-Allyl-4, 5α-epoxy-3,14-dihydroxymorphinan-6-one hydrochloride], the “Comments: solubility” value in data set [3] is “freely soluble in USP alcohol and very soluble in water”. On to `CCCCNc1cc(C(=O)O)cc(S(N)(=O)=O)c1Oc1ccccc1` [Bumex], for which, in data set [1], the “% Change” value amounted to 90%, the “Rodent ICV dose” value turned out to be 0.000364 mg/kg, the Efficacy result is recorded as “effective in blocking” and the “% of Oral dose” value was determined as 1.1%. Moreover, the alleviation of seizures result in data set [2] is given as “efficacious therapeutic alleviation of seizures”. Moreover, in the data set on human, the Human oral equivalent is on record as 0.033 mg/kg. Take `CCN(CC)CCN1C(=O)CN=C(c2ccccc2F)c2cc(Cl)ccc21` [FLURAZEPAM, 7-chloro-1-[2-(diethylamino)ethyl]-5-(o-fluorophenyl)-1,3-dihydro-2H-1,4-benzodiazepin-2-one dihydrochloride]: the “Comments: solubility” value in data set [3] was “Soluble in water, in alcohol, and in 0.1N hydrochloric acid”.
